Common to all, as to assay: KINOMEscan (ScanMAX) kinase profiling
What all share (type): binding

Test [1] addresses T1, panel of 468 kinases (Homo sapiens, UniProt Q2M2I8).
T1 construct: purchased KINOMEscan (ScanMAX) service
The note with it: AAK1; 1 μM; read-out: % control.

Test [2] has as its target T2, panel of 468 kinases (Homo sapiens, UniProt Q8NG66).
T2 construct: purchased KINOMEscan (ScanMAX) service
T2 sequence (Q8NG66 1-645): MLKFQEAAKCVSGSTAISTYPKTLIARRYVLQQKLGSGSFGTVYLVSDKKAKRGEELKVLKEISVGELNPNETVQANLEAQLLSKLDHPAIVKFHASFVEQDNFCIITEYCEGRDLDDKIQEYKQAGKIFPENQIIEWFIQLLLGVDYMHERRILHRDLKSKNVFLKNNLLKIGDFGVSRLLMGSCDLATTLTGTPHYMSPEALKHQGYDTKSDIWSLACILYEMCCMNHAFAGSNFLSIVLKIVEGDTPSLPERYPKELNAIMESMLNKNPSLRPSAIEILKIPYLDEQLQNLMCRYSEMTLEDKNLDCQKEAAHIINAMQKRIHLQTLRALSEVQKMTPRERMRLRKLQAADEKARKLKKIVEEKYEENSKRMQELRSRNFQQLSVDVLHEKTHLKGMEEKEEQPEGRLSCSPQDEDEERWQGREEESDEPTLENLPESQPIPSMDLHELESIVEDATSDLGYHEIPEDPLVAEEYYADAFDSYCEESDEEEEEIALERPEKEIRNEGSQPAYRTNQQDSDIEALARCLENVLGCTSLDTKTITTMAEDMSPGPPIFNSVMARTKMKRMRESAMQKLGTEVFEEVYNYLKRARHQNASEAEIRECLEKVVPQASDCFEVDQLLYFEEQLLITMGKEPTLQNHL
Conditions: NEK11; 1 μM; read-out: % control.

Test [3] deals with T3, panel of 468 kinases (Homo sapiens, UniProt P00533, T790M).
T3 construct: purchased KINOMEscan (ScanMAX) service
The note with it: EGFR(T790M); 1 μM; read-out: % control.

The target of test [4] is T4, panel of 468 kinases (Homo sapiens, UniProt Q96BR1).
T4 construct: purchased KINOMEscan (ScanMAX) service
T4 sequence (Q96BR1 1-496): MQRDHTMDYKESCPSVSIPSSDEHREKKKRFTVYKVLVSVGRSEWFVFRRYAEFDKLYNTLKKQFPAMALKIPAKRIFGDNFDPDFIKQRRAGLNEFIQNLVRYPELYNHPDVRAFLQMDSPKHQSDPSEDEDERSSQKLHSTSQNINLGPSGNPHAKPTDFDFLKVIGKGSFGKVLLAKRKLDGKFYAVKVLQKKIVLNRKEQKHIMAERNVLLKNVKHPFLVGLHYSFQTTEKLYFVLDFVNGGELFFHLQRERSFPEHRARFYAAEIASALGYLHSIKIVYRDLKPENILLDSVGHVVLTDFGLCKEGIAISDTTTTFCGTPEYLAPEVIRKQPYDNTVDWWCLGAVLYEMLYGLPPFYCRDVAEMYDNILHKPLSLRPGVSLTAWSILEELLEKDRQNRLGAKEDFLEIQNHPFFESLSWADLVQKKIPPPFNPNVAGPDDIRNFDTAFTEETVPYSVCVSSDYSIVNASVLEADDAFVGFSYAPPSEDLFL
Conditions: SGK3; 1 μM; read-out: % control.

In test [5] the target is T5, panel of 468 kinases (Homo sapiens, UniProt P14616).
T5 construct: purchased KINOMEscan (ScanMAX) service
T5 sequence (P14616 27-1297): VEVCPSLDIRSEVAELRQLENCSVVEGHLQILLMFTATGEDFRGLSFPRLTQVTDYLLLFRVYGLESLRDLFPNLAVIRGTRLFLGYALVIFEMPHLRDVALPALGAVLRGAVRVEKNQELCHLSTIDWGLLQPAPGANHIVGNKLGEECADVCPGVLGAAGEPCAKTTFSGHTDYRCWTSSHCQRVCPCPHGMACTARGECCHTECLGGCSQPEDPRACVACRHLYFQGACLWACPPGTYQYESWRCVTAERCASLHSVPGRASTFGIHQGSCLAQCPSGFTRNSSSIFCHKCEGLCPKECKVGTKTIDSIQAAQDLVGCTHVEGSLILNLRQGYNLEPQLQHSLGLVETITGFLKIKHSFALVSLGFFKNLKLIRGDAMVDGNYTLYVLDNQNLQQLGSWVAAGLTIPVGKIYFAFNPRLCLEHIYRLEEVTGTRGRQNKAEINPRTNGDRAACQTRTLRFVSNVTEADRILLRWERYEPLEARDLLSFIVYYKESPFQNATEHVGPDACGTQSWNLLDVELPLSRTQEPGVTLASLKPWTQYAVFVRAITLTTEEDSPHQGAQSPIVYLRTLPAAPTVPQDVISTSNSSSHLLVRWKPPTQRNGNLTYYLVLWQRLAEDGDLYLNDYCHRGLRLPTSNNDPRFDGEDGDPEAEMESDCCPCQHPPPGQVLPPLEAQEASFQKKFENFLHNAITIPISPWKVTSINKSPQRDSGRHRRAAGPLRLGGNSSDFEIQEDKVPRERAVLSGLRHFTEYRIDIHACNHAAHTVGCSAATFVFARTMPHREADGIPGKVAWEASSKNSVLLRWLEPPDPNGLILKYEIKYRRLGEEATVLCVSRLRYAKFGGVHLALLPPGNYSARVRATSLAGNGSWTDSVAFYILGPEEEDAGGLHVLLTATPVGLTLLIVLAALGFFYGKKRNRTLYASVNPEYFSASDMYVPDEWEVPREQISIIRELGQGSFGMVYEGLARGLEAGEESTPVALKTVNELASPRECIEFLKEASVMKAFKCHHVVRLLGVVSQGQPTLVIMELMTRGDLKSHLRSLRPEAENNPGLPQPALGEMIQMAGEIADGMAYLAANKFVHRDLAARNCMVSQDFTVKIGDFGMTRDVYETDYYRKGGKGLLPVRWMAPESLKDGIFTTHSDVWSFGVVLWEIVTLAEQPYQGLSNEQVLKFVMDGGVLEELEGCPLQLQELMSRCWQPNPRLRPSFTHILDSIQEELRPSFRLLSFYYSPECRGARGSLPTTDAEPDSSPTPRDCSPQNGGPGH
Conditions: INSRR; 1 μM; read-out: % control.

Test [6] has as its target T6, panel of 468 kinases (Homo sapiens, UniProt Q9Y6M4).
T6 construct: purchased KINOMEscan (ScanMAX) service
Conditions: CSNK1G3; 1 μM; read-out: % control.

Test [7] concerns the target T7, panel of 468 kinases (Homo sapiens, UniProt P42336, I800L).
T7 construct: purchased KINOMEscan (ScanMAX) service
The note with it: PIK3CA(I800L); 1 μM; read-out: % control.

Test [8] addresses T8, panel of 468 kinases (Homo sapiens, UniProt P35916).
T8 construct: purchased KINOMEscan (ScanMAX) service
Conditions: FLT4; 1 μM; read-out: % control.

In test [9] the target is T9, panel of 468 kinases (Homo sapiens, UniProt Q9BYP7).
T9 construct: purchased KINOMEscan (ScanMAX) service
T9 sequence (Q9BYP7 whole entry): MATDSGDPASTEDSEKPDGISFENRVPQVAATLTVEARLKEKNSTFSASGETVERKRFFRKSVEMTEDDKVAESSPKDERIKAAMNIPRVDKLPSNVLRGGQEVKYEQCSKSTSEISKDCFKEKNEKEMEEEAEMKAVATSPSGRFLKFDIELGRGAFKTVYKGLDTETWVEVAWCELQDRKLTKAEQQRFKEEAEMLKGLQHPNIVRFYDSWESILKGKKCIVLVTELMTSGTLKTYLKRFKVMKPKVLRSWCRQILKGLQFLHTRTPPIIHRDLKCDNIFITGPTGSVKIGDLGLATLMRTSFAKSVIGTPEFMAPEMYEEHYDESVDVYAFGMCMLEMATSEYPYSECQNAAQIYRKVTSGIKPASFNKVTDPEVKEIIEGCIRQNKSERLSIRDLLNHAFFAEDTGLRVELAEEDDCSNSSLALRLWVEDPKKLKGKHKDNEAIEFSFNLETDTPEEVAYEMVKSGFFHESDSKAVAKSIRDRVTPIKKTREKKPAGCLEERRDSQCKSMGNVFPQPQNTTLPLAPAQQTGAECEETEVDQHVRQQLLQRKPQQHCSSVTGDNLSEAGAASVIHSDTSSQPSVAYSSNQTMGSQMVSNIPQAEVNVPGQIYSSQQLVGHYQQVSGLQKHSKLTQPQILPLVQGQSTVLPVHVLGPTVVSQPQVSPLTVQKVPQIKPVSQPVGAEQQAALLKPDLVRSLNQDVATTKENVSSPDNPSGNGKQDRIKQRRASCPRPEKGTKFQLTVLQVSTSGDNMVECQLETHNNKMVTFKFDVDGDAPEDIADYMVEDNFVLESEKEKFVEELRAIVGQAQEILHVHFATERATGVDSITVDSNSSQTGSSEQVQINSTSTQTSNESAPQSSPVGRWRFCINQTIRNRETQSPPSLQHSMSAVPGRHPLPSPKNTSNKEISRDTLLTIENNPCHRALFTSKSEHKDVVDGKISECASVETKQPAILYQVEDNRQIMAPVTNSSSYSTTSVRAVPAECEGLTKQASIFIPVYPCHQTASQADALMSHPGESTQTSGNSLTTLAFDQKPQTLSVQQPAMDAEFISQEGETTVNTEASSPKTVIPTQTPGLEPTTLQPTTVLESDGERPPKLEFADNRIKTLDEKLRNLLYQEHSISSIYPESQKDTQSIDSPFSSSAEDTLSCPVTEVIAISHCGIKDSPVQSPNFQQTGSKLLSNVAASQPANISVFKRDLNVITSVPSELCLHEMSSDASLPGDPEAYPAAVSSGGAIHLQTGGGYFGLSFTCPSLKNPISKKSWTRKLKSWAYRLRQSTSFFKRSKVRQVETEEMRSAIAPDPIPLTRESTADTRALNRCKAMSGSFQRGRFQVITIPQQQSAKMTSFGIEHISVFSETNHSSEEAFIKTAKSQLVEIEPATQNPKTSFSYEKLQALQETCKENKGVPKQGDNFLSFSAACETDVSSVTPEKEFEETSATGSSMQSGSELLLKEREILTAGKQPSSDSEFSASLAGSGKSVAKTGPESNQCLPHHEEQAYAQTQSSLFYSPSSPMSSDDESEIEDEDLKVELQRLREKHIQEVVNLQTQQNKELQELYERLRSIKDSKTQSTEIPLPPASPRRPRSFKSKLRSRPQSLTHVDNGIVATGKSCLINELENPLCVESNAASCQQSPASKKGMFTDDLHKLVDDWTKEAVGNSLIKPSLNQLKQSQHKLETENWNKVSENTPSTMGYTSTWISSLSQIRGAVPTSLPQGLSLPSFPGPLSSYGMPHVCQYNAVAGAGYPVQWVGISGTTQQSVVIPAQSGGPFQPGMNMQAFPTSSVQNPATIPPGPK
Conditions: WNK3; 1 μM; read-out: % control.

Test [10] has as its target T10, panel of 468 kinases (Homo sapiens, UniProt Q15303).
T10 construct: purchased KINOMEscan (ScanMAX) service
Conditions: ERBB4; 1 μM; read-out: % control.

The target in test [11] is T11, panel of 468 kinases (Homo sapiens, UniProt Q05655).
T11 construct: purchased KINOMEscan (ScanMAX) service
T11 sequence (Q05655 whole entry): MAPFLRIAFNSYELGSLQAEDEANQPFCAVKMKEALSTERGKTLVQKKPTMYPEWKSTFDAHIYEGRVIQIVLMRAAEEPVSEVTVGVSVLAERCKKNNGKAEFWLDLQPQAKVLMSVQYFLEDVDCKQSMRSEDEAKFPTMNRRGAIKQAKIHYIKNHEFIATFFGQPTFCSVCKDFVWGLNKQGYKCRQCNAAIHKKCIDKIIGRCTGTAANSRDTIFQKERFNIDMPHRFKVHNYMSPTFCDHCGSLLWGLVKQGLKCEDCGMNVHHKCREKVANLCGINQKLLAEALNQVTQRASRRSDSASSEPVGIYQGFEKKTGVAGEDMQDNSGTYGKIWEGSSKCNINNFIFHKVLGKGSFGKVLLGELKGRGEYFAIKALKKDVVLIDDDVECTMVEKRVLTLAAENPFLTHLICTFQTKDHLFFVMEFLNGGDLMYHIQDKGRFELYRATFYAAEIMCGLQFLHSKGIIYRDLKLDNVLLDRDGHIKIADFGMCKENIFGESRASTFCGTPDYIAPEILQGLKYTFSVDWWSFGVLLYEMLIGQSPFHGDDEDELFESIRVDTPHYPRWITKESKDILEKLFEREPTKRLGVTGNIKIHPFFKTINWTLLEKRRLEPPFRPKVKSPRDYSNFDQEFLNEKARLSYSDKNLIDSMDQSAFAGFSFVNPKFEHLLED
The note with it: PRKCD; 1 μM; read-out: % control.

Test [12] addresses T12, panel of 468 kinases (Homo sapiens, UniProt P31152).
T12 construct: purchased KINOMEscan (ScanMAX) service
The note with it: ERK4; 1 μM; read-out: % control.

The results in this text go back to patent US12479847B2 (DANA-FARBER CANCER INSTITUTE, INC., priority 2019, dated 2025).

SMILES strings stand for the structures.

T10 sequence (Q15303 26-1308): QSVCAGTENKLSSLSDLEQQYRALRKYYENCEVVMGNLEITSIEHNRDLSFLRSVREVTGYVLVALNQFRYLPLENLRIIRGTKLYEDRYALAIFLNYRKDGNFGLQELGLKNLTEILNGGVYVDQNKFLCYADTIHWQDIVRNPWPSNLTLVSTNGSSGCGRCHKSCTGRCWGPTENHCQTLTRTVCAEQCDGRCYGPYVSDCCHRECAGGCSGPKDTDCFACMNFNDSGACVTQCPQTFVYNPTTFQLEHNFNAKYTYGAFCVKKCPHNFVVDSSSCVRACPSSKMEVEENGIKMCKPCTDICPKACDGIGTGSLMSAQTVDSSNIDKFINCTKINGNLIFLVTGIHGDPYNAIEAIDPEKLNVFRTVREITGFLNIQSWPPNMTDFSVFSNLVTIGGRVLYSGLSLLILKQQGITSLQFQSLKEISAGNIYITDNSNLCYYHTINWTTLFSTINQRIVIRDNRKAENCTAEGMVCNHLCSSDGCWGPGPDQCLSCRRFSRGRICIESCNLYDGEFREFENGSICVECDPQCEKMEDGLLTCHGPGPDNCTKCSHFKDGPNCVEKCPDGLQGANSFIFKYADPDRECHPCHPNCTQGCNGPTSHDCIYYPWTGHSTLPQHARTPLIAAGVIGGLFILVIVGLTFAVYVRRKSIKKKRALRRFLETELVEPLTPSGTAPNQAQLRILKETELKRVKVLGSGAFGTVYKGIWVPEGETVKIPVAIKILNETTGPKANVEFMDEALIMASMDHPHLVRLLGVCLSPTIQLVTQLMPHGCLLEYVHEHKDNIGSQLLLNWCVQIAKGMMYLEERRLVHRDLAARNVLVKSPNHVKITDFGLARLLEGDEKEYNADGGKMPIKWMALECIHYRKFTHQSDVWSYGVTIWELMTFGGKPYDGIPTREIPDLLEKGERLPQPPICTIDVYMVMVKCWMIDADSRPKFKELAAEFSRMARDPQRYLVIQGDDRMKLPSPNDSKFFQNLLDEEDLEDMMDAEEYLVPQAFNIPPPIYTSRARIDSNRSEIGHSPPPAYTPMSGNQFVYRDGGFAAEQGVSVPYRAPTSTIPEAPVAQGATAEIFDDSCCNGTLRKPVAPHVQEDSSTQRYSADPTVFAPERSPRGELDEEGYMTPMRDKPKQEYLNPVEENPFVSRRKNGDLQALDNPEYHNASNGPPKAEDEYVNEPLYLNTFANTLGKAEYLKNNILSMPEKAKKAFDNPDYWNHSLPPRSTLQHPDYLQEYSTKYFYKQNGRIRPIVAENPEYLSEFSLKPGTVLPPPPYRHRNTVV

In the case of `CNc1nc(Nc2ccc(S(=O)(=O)N3CCC(N4CCOCC4)CC3)cc2OC)nc2[nH]cc(Cl)c12` [Compound 12, 5-chloro-N2-(2-methoxy-4-((4-morpholinopiperidin-1-yl)sulfonyl)phenyl)-N4-methyl-7H-pyrrolo[2,3-d]pyrimidine-2,4-diamine], the remaining binding at 1 µM in [1] came to 100%; in test [2], 96%; in [3], 75%; in test [4], 76%; in [5] it was 85%; in test [6], 96%. For the same molecule, the remaining binding at 1 µM in test [7] is 74%; in test [8], 100%; in test [9], 100%; in test [10], 99%; in test [11] it was 94%; in test [12] it was 100%.
In the case of `CNc1nc(Nc2ccc(P3(=O)CCN(C4CCOCC4)CC3)cc2OC)nc2[nH]cc(Cl)c12` [Compound 77, 4-(4-((5-chloro-4-(methylamino)-7H-pyrrolo[2,3-d]pyrimidin-2-yl)amino)-3-methoxyphenyl)-1-(tetrahydro-2H-pyran-4-yl)-1,4-azaphosphinane 4-oxide], the remaining binding at 1 µM in test [1] worked out at 99%; in [2], 100%; in test [3], 55%; in test [4], 78%; in test [5] it was 62%; in [6], 89%. Moreover, the remaining binding at 1 µM in test [7] turned out to be 69%; in [8] it was 100%; in test [9] it was 98%; in test [10], 88%; in test [11], 95%; in test [12], 100%.
For the molecule `CNc1nc(Nc2ccc(C(=O)N3CCC(N4CCOCC4)CC3)c3c2OCO3)nc2[nH]cc(Cl)c12` [Compound 75, (7-((5-chloro-4-(methylamino)-7H-pyrrolo[2,3-d]pyrimidin-2-yl)amino)benzo[d][1,3]dioxol-4-yl)(4-morpholinopiperidin-1-yl)methanone], the remaining binding at 1 µM in test [1] is 13%; in [2], 100%; in [3] it was 63%; in test [4] it was 32%; in test [5], 88%; in test [6], 18%. The remaining binding at 1 µM in test [7] is 87%; in test [8], 100%; in test [9] it was 93%; in [10] it was 90%; in test [11] it was 89%; in test [12] it was 100%.
